Patent publication US7855211B2, “Protein kinase inhibitors” (Eli Lilly and Company, priority 2008, dated 2010)
Like-named read-outs stand apart in the source and are kept apart here. Values belong to the compound of their own block, whether it stands above or below them.

Experiments:
[1] = tested on: human glioblastoma cells (U87MG); test: Human subcutaneous xenograft model, U87MG, athymic nude mice; format: in vivo; details: U87 MG, oral gavage daily for 21 days
Experimental: (§1) Test compound is prepared in an appropriate vehicle (1% hydroxyethyl cellulose, in 25 mM phosphate buffer pH 2) and is administered by oral gavage daily (at 25, 50 or 100 mg/kg (mpk)) for 21 days when tumours are established (11-29 days after implant). Tumour response is determined by tumour volume measurement performed twice a week during the course of treatment.
(§2) The statistical method for assessing Tumour Growth Delay (TGD-Individual interpolation method) is as follows: For each animal, the time to reach a specified tumour volume (threshold) is calculated by interpolating between the last measurement before reaching the threshold and the next measurement. The interpolation is linear using log10(volume) vs. time. If an animal never reaches the threshold, its crossing time is reported at “>T” where T is the last day measured for that animal. These crossing times are analyzed as “time-to-event” data with right-censoring using a Weibull distribution. A mean and standard deviation are determined for each treatment group. Tumour growth delay (TGD) is the difference in mean crossing time between a treated group and the vehicle control group. T-tests are performed using the means and standard deviations from the Weibull analysis. Body weight is taken as a general measurement of toxicity.

[2] = tested on: human lung cancer cells (NCI H460); test: Human subcutaneous xenograft model, NCI H460, athymic nude mice; format: in vivo; details: oral gavage daily for 21 days
Experimental: as §1, §2

[3] = tested on: U87 MG human glioblastoma tumour cells; test: Orthotopic Brain Xenograft Model, NIH-RNU rats, survival; format: in vivo
Source text: Test compound is formulated in vehicle (1% w/v hydroxyethylcellulose/0.25% v/v polysorbate 80/0.05% v/v antifoam in purified water) and administered every day for 21 days at 20, 40 and 80 mpk (qdx21) and 80 mpk q2dx10 starting on day 4 after tumour implant.
The primary outcome variable is survival.

[4] = Plasma and brain exposure in non-tumour bearing male Sprague Dawley rats; format: in vivo, rat; details: male SD rats; for concentration at 2 h / concentration at 4 h / concentration at 24 h / concentration at 48 h: single oral dose 30 mg/kg
Experimental: Samples are taken over 48 h in order to determine plasma and brain concentrations. Animals are sacrificed, and whole blood collected by cardiac puncture and plasma isolated by centrifugation. Whole brain is collected and snapped frozen in liquid nitrogen. […] An internal standard compound in acetonitrile/methanol (1:1, v/v) is added to samples of plasma or brain homogenate to precipitate protein and the samples are centrifuged prior to analysis. The supernatants are analysed by injection and rapid gradient elution on a Javelin Betasil C18 column (20×2.1 mm cartridge, Mobile phase A: […] The eluted analytes are detected by LC-MS-MS analysis using a Sciex API 4000 triple quadrupole mass spectrometer. Concentrations of compounds in plasma or brain are determined from standards prepared under identical conditions. The plasma and brain concentrations are determined in this study from a group of three rats at each time point (see Tables 6a and 6b) and are used to calculate the area under the plasma concentration/time curve or the brain concentration/time curve from 0 to 48 hours. […] Maximal concentrations (Tmax) are detected at 4 h.

[5] = tested on: human acute myeloid leukaemia (AML) cells (MV4-11); test: Human subcutaneous xenograft model, MV4-11, athymic nude mice; format: in vivo; details: for TGD Days (750 m3): oral gavage daily for 21 days
Experimental: as §1, §2

Solubility Assay = format: physicochemical; details: aqueous buffer, thermodynamic from solid; pH 8 phosphate buffer, ambient temperature, at least 16 hours, target 2.0 mg/mL
Experimental: The appropriate amounts of test compound are weighed into separate chromatographic vials. […] The vials are capped securely and placed in a rotation device. The vials are rotated through 360° for at least 16 hours at ambient temperature with an angular speed of about 50 rpm. A visual examination of the individual vials is performed after rotation. 250 μL from each vial is filtered through a 0.7 μm glass filter. The sample filtrate and standard filtrate are collected into separate wells of 96 deep well plates. […] The sample and standard solutions are analysed by HPLC (LC Column: […] A—0.2% Formic Acid in Water; B—0.2% Formic Acid in acetonitrile; […] Diode array detector scan from 200 nm to 400 nm. The wavelength extracted and used for quantitation is selected to provide the most accurate estimation of the sample preparations.) Retention time used for peak assignment for the test compound is obtained from the 200 μg/mL standard preparation chromatogram. Solubility values are calculated using a four-level calibration curve. The line of best fit for peak area of calibration standards calculated by chromatographic management data system using linear or quadratic through zero fit is used. Solubility results are reported in mg/mL. Preferred exemplified compounds display a solubility of at least 2 mg/ml in pH 8 phosphate buffer using the above assay.

[6] = tested on: Human colorectal cancer cells (colo-205); test: Human subcutaneous xenograft model, colo-205, athymic nude mice; format: in vivo; details: oral gavage daily for 21 days
Experimental: as §1, §2

[7] = tested on: Calu-6 (lung) subcutaneous xenografts; test: Calu-6 (lung) subcutaneous xenograft, combination study with gemcitabine; format: in vivo, human; details: 60 mpk, IP, q3dx7
Experimental: as §1, §2
Calu-6 (lung) subcutaneous xenografts are grown and measured as previously described. Gemcitabine was formulated in saline (0.9% sodium chloride in purified water) and administered via intraperitoneal injection q3dx7. Test compound was administered qdx21. A comparison of the single agent activity of gemcitabine with combination treatments containing both gemcitabine and the compound of Example 16 are shown in Table 10. Tumour growth is analyzed by 2-way interaction analysis.

[8] = tested on: U87 MG orthotopic brain xenografts; test: U87 MG orthotopic brain xenograft, combination study with temozolomide; details: TMZ IP 3 mg/kg (days 6 and 13)
Experimental: In vivo brain tumour model: Male NIH-RNU rats weighing between 225 and 300 g are anesthetized with isoflurane and placed into a stereotaxic frame (David Kopf Instruments, Tujunga, Calif.). A mid-line incision is made and a 1 mm burr hole drilled 2 mm lateral from the midline and 3 mm anterior to the coronal suture. A cell suspension of 5×10^5 U87 MG human glioblastoma tumour cells (grown in Eagle's MEM with Earle Salts, L-glutamine and non essential amino acids, 1 mM Na pyruvate and 10% FBS) in 10 μL (5×10^5 cells for qd dosing and 1×10^6 for q2d dosing) is injected at a depth of 3 mm by means of a 25 or 50 μl Hamilton syringe over a period of approximately 2 min using a stereotaxic-mounted syringe pump (Nano-Injector, model #53310 and Stereotaxic Adapter Clamp, part #51681, Stoelting Co, Wood Dale, Ill.) with the syringe left in place for an additional 1 min to prevent backflow and the syringe is slowly withdrawn. […]
The primary outcome variable is survival. Animals are monitored daily until death and, in consultation with the veterinary staff and in adherence with the policy on tumour implantation, euthanized if the animal becomes moribund. […] Survival data are analyzed by the Kaplan-Meier method for median survival analysis using JMP ν6.0.2 (SAS Institute).

[9] = tested on: U87 MG subcutaneous xenografts; test: U87 MG subcutaneous xenograft, combination study with temozolomide; format: in vivo, human; details: 3 mpk, IP, q7dx2
Experimental: as §1, §2
U87 MG subcutaneous xenografts are grown and measured as previously described. The compound of Example 16 is formulated and administered as previously described and dosed orally once a day from days 11-31. Temozolomide (Schering Corporation) is formulated in 1% w/v hydroxyethylcellulose/0.25% v/v polysorbate 80 in purified water and administered by interperitoneal injection on days 11 and 18. A comparison of the single agent activity of temozolomide with a combination treatment with the compound of Example 16 is shown in Table 7. Tumor growth is analyzed by 2-way interaction analysis; log-transformed tumor volumes were analyzed with a repeated measures analysis of variance (ANOVA) using a spatial power correlation model in SAS, version 9.1 (Cary, N.C.). […]

CDK6 = molecular target: T1, CDK6 (Homo sapiens, UniProt Q00534); test: CDK6 Inhibition Assay; format: biochemical; details: CDK6 kinase, 33P-ATP, CTRF substrate
T1 construct: purchased Proqinase 7533
Experimental: 10 μL of test compound in 20% DMSO, 20 μL of ATP and CTRF (Upstate cat # 12-439) solution, and 10 μL of enzyme solution are mixed in a 96 well plate. The ATP and CRTF solution is prepared to give a final concentration of 100 μM ATP, 0.5 μCi [^33P]-ATP and 0.8 μM CTRF diluted in kinase buffer of 68 mM HEPES pH 7.4, 6.72 mM MgCl2, 2.64 mM DTT, and 0.004% TRITON™ X-100. The enzyme solution is prepared for a final concentration of 1.7 ng/μL CDK6 enzyme (Proqinase cat # 7533) diluted in the kinase buffer described above in the CDK4 inhibition assay. Test compounds are serially diluted 1:3 in 20% DMSO to create a 10 point curve at a starting concentration of 20 μM. 20% DMSO buffer alone without added test compound is employed as a control, 500 mM EDTA is used to determine the level of background ^33P in the absence of enzyme activity. Reagents are mixed and incubated for 90 min at 20° C. The reaction is terminated by the addition of 80 μL 10% (v/v) H3PO4 and precipitation of material onto glass fiber filter plates (Millipore, MAFC N0B 50). The wells are washed four times with 0.5% H3PO4 and the radioactivity incorporated is determined with a microplate scintillation counter (Microbeta Trilux, Wallac).
The data is analyzed in the same manner as for CDK4. Preferred exemplified compounds display an IC50 of <30 nM in the above assay. […]

[10] = Sprague Dawley, rat, brain, read-out: Brain concentration (Mean)
[11] = Sprague Dawley, rat, plasma, read-out: Plasma concentration (Mean)

T1 sequence (Q00534 whole entry): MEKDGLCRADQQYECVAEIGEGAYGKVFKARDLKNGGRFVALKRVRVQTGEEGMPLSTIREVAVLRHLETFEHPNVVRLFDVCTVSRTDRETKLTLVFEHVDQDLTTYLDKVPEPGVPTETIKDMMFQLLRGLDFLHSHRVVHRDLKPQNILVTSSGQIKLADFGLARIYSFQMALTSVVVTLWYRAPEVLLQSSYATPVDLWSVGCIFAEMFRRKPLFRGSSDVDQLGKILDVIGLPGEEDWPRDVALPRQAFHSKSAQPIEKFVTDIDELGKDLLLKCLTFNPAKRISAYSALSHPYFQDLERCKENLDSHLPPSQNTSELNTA
T1 sequence (P24385 whole entry partner): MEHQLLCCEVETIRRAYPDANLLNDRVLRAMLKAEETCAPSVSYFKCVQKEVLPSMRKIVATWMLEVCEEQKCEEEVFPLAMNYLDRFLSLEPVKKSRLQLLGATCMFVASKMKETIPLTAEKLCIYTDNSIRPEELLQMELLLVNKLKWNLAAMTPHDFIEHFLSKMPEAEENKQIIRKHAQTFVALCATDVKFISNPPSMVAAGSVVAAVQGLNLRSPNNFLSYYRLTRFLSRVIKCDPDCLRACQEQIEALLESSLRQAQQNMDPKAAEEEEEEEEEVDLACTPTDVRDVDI

Structure (SMILES): CCN1CCN(Cc2ccc(Nc3ncc(F)c(-c4cc(F)c5nc(C)n(C(C)C)c5c4)n3)nc2)CC1.CS(=O)(=O)O [Example 16, [5-(4-Ethyl-piperazin-1-ylmethyl)-pyridin-2-yl]-[5-fluoro-4-(7-fluoro-3-isopropyl-2-methyl-3H-benzoimidazol-5-yl)-pyrimidin-2-yl]-amine methanesulfonate]
TGD Days (750 m3) ([1]; 25 mpk): 6.1 days
TGD Days (750 m3) ([1]; 50 mpk): 10.0 days
TGD Days (750 m3) ([1]; 100 mpk): 21.4 days
TGD Days (750 m3) ([2]; H460, 25 mpk): 1.5 days
TGD Days (750 m3) ([2]; H460, 50 mpk): 4.0 days
TGD Days (750 m3) ([2]; H460, 100 mpk): 6.7 days
median survival compared to vehicle treated animals ([3]; 40 mpk qd, 80 mpk qd and 80 mpk q2d): statistically significant increase in median survival
Mean Survival ([3]; PO 20 mg/kg qd): 29.8 days
Median Survival ([3]; PO 20 mg/kg qd): 31 days
Mean Survival ([3]; PO 40 mg/kg qd): 34.3 days
Median Survival ([3]; PO 40 mg/kg qd): 37 days
Mean Survival ([3]; PO 80 mg/kg q2d): 33.0 days
Median Survival ([3]; PO 80 mg/kg q2d): 34 days
Mean Survival ([3]; PO 80 mg/kg qd): 36.9 days
Median Survival ([3]; PO 80 mg/kg qd): 37 days
concentration at 2 h [4, 10]: 758 ng/g
concentration at 4 h [4, 10]: 1500 ng/g
concentration at 24 h [4, 10]: 992 ng/g
concentration at 48 h [4, 10]: 718 ng/g
Cmax ([4]; Sprague Dawley, rat, plasma, 30 mg/kg oral): 1500 ng/mL
concentration at 2 h [4, 11]: 1010 ng/mL
concentration at 4 h [4, 11]: 1500 ng/mL
concentration at 24 h [4, 11]: 1020 ng/mL
concentration at 48 h [4, 11]: 972 ng/mL
Tmax ([4]; Sprague Dawley, rat, 30 mg/kg oral, plasma and brain, read-out: Maximal concentrations (Tmax)): 4 h
Cmax Brain ([4]; 30 mg/kg oral): 1500 ng/g
Tmax Brain ([4]; 30 mg/kg oral): 4.00 h
Tmax Plasma ([4]; 30 mg/kg oral): 4.00 h
blood-brain barrier penetration ([4]; 30 mg/kg oral): able to cross the blood-brain barrier and distributes well into the brain
AUC Brain ([4]; 30 mg/kg oral, 0-48 Hours): 47900 ng·h/g
AUC Plasma ([4]; 30 mg/kg oral, 0-48 Hours): 52300 ng·h/mL
Kp ([4]; male, Sprague Dawley, rat, brain/plasma, po, 30 mg/kg, 30 mg/kg oral, 0-48 Hours, read-out: AUC Brain/Plasma Ratio): 0.92
Kp ([4]; male, Sprague Dawley, rat, brain/plasma, po, 30 mg/kg, 30 mg/kg oral, by AUC or Cmax, read-out: brain/plasma ratio): ~1
Kp at 4 h ([4]; male, Sprague Dawley, rat, brain/plasma, po, 30 mg/kg, 30 mg/kg oral, read-out: Cmax Brain/Plasma Ratio): 1
tumour response ([5]; AML MV4-11 xenografts, 100 mg per Kg (mpk)): tumour regression is observed
TGD Days (750 m3) ([5]; MV4-11, 25 mpk): 10.4 days
TGD Days (750 m3) ([5]; MV4-11, 50 mpk): 11.5 days
Tumor volume (mg) at start of dosing period (day 28) ([5]; MV4-11, 100 mpk, PO, qdx21, day 28): 225.94 mg
Tumor volume (mg) at end of dosing period (day 49) ([5]; MV4-11, 100 mpk, PO, qdx21, day 49): 116.68 mg
TGD Days (750 m3) ([5]; MV4-11, 100 mpk): 28.8 days
solubility (Solubility Assay): 2100 µg/mL
TGD Days (750 m3) ([6]; colo-205, 25 mpk): 15.3 days
TGD Days (750 m3) ([6]; colo-205, 50 mpk): 17.4 days
TGD Days (750 m3) ([6]; colo-205, 100 mpk): 39.9 days

Structure (SMILES): Cl.Nc1ccn([C@@H]2O[C@H](CO)[C@@H](O)C2(F)F)c(=O)n1 (single isomer, unassigned) [Gemcitabine, 2′-deoxy-2′,2′-difluorocytidine monohydrochloride (β-isomer)]
Dead/total animals [7]: 0/7
Maximum body weight loss (%) [7]: −12%
Tumor volume (mg) at end of dosing period (day 38) [7]: 509.18 mg

Structure (SMILES): Cn1nnc2c(C(N)=O)ncn2c1=O [Temozolomide]
Mean Survival [8]: 46.9 days
Median Survival [8]: 47 days
Dead/total animals [9]: 0/8
Maximum body weight loss (%) [9]: −1%
Tumor volume (mg) at end of dosing period (day 31) [9]: 101.88 mg

IC50 (CDK6): 5 nM
Structure (SMILES): Cc1nc2c(F)cc(-c3nc(Nc4ccc(CN5CCN(C(C)C)CC5)cn4)ncc3F)cc2n1C(C)C [Example 19, [5-Fluoro-4-(7-fluoro-3-isopropyl-2-methyl-3H-benzoimidazol-5-yl)-pyrimidin-2-yl]-[5-(4-isopropyl-piperazin-1-ylmethyl)-pyridin-2-yl]-amine methanesulfonate]
